Results: paper PMC8092912 (Antimicrobial Agents and Chemotherapy, 2021)
Like-named read-outs stand apart in the source and are kept apart here.

Columns and labels:
[1] = test system: HIV-1 strain NL4.3 G140S+Q148H; experiment: Drug washout, viral replication (RT activity in culture supernatant) of G140S+Q148H virus in MT-2 cells; assay type: cell-based; conditions: for G140S+Q148H viral replication under constant drug pressure: drug at 20 times IC90, no washout
Description: (§1) We then washed away the inhibitors 3 days postinfection and quantified the reverse transcriptase activity in the culture supernatant to evaluate viral growth as described on washout days 0, 4, and 8 ([10], [11]). […] Longer experiments would be required to further differentiate BIC and DTG in washout experiments using WT virus.
(§2) Replication was assessed by measuring RT activity in culture supernatant without and after drug washout. Bar graphs, mean ± SEM. Statistical significance of drug washout with drug control conditions were assessed by adjusted P value with Tukey’s test: *, <0.05; ***, <0.001; and ****, <0.0001. For the washout experiments, BIC and EVG were synthesized at Gilead Sciences, Inc., DTG was purchased from Toronto Research Chemicals (ON, Canada), and RAL was provided by Merck, Inc.
The G140S+Q148H mutations cause varied degrees of resistance to INSTIs.

[2] = target: T1, G140S+Q148H mutant HIV-1 IN-DNA complexes (Human immunodeficiency virus type 1 group M subtype B, UniProt P04585, G1287S/Q1295H); conditions: for Apparent t1/2, G140S+Q148H: 37°C, single exponential decay
Description: (§3) Data sets were analyzed using a single exponential decay equation as previously published for INSTIs ([3]).

[3] = test system: HIV-1 G140S+Q148H; experiment: Antiviral activity against G140S+Q148H HIV-1 in the MT-2 cell line; assay type: cell-based; conditions: for EC50: Human immunodeficiency virus 1, MT2; for Fold change of EC50, G140S+Q148H (reduced susceptibility): versus WT
[4] = test system: HIV-1 strain NL4.3 WT; experiment: Drug washout, viral replication (RT activity in culture supernatant) of WT virus in MT-2 cells; assay type: cell-based; conditions: for Time WT viral replication remained inhibited after washout: drug at 20 times IC90, washout 3 days postinfection; for WT viral replication after washout: drug at 20 times IC90, 4 days after washout
Description: as §1, §2

[5] = test system: HIV-1 WT; experiment: Antiviral activity against WT HIV-1 in the MT-2 cell line; assay type: cell-based; conditions: Human immunodeficiency virus 1, MT2
Excerpt: TABLE 1 Structure and antiviral activity of INSTIs in the MT-2 cell line | column: Antiviral activity against HIV-1, EC50 (nM)^b (fold change) / WT

[6] = target: T2, WT HIV-1 IN-DNA complexes (Human immunodeficiency virus type 1 group M subtype B, UniProt P04585)
Description: as §3

[7] = test system: G140S+Q148H mutant HIV-1 IN-DNA complexes
Description: as §3

[8] = target: T2, WT HIV-1 IN-DNA complexes; conditions: cited from earlier work
[9] = target: T1, G140S+Q148H mutant HIV-1 IN-DNA complexes; conditions: values in square brackets; cited from earlier work

SMILES	G140S+Q148H viral replication under constant drug pressure [1]	Apparent t1/2, G140S+Q148H [2]	EC50 [3]	Time WT viral replication remained inhibited after washout [4]	EC50 [5]	Apparent t1/2, WT ([6]; 37°C, single exponential decay)	koff, WT ([6]; 37°C, single exponential decay)	Apparent t1/2, G140S+Q148H, fold change vs WT [7]	koff, G140S+Q148H, fold change vs WT [7]	Fold change of EC50, G140S+Q148H (reduced susceptibility) [3]	Apparent t1/2, G140S+Q148H [9]	koff, G140S+Q148H [9]	WT viral replication after washout [4]	also measured
O=C(NCc1c(F)cc(F)cc1F)c1cn2c(c(O)c1=O)C(=O)N1[C@H]3CC[C@H](C3)O[C@@H]1C2 [BIC, bictegravir]	very low levels of replication	5.7 ± 0.4 h	3.1 ± 0.8 nM	at least 8 days	1.5 ± 0.2 nM	–	–	–	–	–	–	–	–	Suppression of the G140S+Q148H virus after washout ([1]; drug at 20 times IC90, after 8 days of washout): > 80%
O=C(NCc1ccc(F)cc1F)c1cn2c(c(O)c1=O)C(=O)N1[C@H]3CC[C@H](C3)O[C@@H]1C2 [Compound 1]	–	4.8 ± 0.2 h	4.5 ± 1.8 nM	–	1.4 ± 0.5 nM	155 ± 25 h	1.3 ± 0.2 s^−1 (×10^−6)	32 fold	0.03 fold	3.2 fold	–	–	–	–
O=C(NCc1c(F)cc(F)cc1F)c1cn2c(c(O)c1=O)C(=O)N1[C@@H]3CC[C@@H](C3)O[C@H]1C2 [Compound 2]	–	1.7 ± 0.2 h	11.1 ± 0.5 nM	–	1.5 ± 0.5 nM	–	–	–	–	–	–	–	–	–
C[C@@H]1CCO[C@H]2Cn3cc(C(=O)NCc4ccc(F)cc4F)c(=O)c(O)c3C(=O)N12 [DTG, dolutegravir]	low replication	1.9 ± 0.2 h	6.5 ± 1.2 nM	at least 8 days	1.5 ± 0.2 nM	96 ± 29 h	2.2 ± 0.7 s^−1 (×10^−6)	51 fold	0.02 fold	4.3 fold	3.3 h	58 ± 8 s^−1 (×10^−6)	–	G140S+Q148H viral replication after washout ([1]; drug at 20 times IC90, 4 and 8 days after washout): significant viral replication; Apparent t1/2, WT ([8]; values in square brackets): 71 h; koff, WT ([8]; values in square brackets): 2.7 ± 0.4 s^−1 (×10^−6)
COc1cc2c(cc1Cc1cccc(Cl)c1F)c(=O)c(C(=O)O)cn2[C@H](CO)C(C)C [EVG, elvitegravir]	–	–	868 ± 138 nM	–	2.1 ± 0.9 nM	–	–	–	–	–	–	–	detectable viral replication	–
Cc1nnc(C(=O)NC(C)(C)c2nc(C(=O)NCc3ccc(F)cc3)c(O)c(=O)n2C)o1 [RAL, raltegravir]	–	–	2460 nM	–	9.4 ± 1.4 nM	–	–	–	–	–	ND [0.2] h	ND [1,130] s^−1 (×10^−6)	detectable viral replication	koff, WT [6]: 21 ± 6 [22 ± 2]; Apparent t1/2, WT ([6]; recombinant enzyme): 10 ± 2 [8.8] h; Binding to G140S+Q148H IN-DNA complexes for determination of dissociation kinetics [2]: insufficient level of binding; Apparent t1/2, WT [8]: 10 ± 2 [8.8] h; koff, WT [8]: 21 ± 6 [22 ± 2]
